The subject of one data set is 4T1 breast cancer cells. Nature of the data set: In-vitro EDHB nucleotide analysis by LC-MS, 4T1. The note with it: 4T1 cells, 200 uM EDHB, 8 hours. The data set is classed as cell-based, murine.
The subject of data set [1] is NSCLC PDX explants with autologous CD8+ T cells. Description: Co-culture of NSCLC PDX tumor explants with autologous CD8+ T cells, IFNγ ELISA. Format: cell-based, human. The note with it: for IFNγ secretion by autologous CD8+ T cells, anti-PD1 plus mizoribine-treated explants: explants pre-treated with mizoribine 0.3 mM 10 hrs, nivolumab or pembrolizumab 20 µg/mL, 18 hours. The source says:
Two patients bearing metastatic non-small cell lung cancer (NSCLC) were included in this study. Blood samples and fresh tumor tissue samples were procured just after their biopsy with patient consent and with Helsinki approval (number 0093-19-SOR). The samples were placed in serum free DMEM (Gibco) media then processed for implantation in NSG (NOD scid gamma) mice. Tumor tissue samples were implanted subcutaneously in dorsal flanks of the mice to form patient-derived xenografts (PDXs). All animal experiments were done under Institutional Animal Care and Use Committee (IACUC) of Ben-Gurion University of the Negev (BGU’s IACUC) according to specified protocols aiming to ensure animal welfare and reduce su □ ering. The Animal ethical clearance protocol number used for this research is IL-80-12-2015. After isolation of peripheral blood mononuclear cells (PBMCs) from the peripheral blood of the patients according to standard protocol using Lymphocyte Separation Medium (LSM, MP Biomedicals, SKU 0850494-CF), CD8^+ T cells were isolated from PBMCs by employing human CD8 Microbeads (Miltenyi Biotec, 130-045-201), LS column (Miltenyi Biotec, 130-042-401) and MidiMACS Separator (130-042-302) following manufacturer’s protocol. For culturing and maintenance of CD8 T cells, RPMI containing 10% human male AB plasma (Sigma, H4522), 1 mM sodium pyruvate, 2 mM L-glutamine, 0.1 mM MEM non-essential amino acids, 1% penicillin/streptomycin, 10 mM HEPES (Life Technologies), 200 IU/mL recombinant human IL-2 (PeproTech) and 50 ng/mL anti-human CD3 Antibody (BioLegend, 317302) were used for the first 48 hrs followed by culturing and passaging in media containing 200 IU/mL of IL-2.
2×2×2 mm^3 tumor tissue explants were cut from PDXs with a specific tissue cutter and seeded singly in 48 well flat-bottom plates and incubated with either mizoribine (0.3 mM) in 400 µl of media or with only media for 10 hrs. Then, explants were washed once and transferred into new 48 well flat-bottom plates containing 2×10^5 CD8+T cells/well along with nivolumab (Opdivo, 20 µg/mL), pembrolizumab (Keytruda, 20 µg/mL) or mock solventin fresh 400 µl RPMI containing 20 IU/ml ofIL-2. After 18 hours of incubation, the supernatant was collected from the wells and then assayed for standard IFNγ ELISA assay (ELISA MAX, Biolegend) according to manufacturer’s instructions.
Two patients bearing metastatic non-small cell lung cancer (NSCLC) were included in this study. Blood samples and fresh tumor tissue samples were procured just after their biopsy with patient consent and with Helsinki approval (number 0093-19-SOR). The samples were placed in serum free DMEM (Gibco) media then processed for implantation in NSG (NOD scid gamma) mice (NOD.Cg-Prkdcscid Il2rgtm1Wjl, The Jackson Laboratory). Tumor tissue samples were implanted subcutaneously in dorsal flanks of the 7-9 weeks old male mice to form patient-derived xenografts (PDXs).
After isolation of peripheral blood mononuclear cells (PBMCs) from the peripheral blood of the patients according to standard protocol using Lymphocyte Separation Medium (LSM, MP Biomedicals, SKU 0850494-CF), CD8^+ T cells were isolated from PBMCs by employing human CD8 Microbeads (Miltenyi Biotec, 130-045-201), LS column (Miltenyi Biotec, 130-042-401) and MidiMACS Separator (130-042-302) following manufacturer’s protocol. For culturing and maintenance of CD8 T cells, RPMI containing 10% human male AB plasma (Sigma, H4522), 1 mM sodium pyruvate, 2 mM L-glutamine, 0.1 mM MEM non-essential amino acids, 1% penicillin/streptomycin, 10 mM HEPES (Life Technologies), 200 IU/mL recombinant human IL-2 (PeproTech) and 50 ng/mL anti-human CD3 Antibody (BioLegend, 317302) were used for the first 48 hrs followed by culturing and passaging in media containing 200 IU/mL of IL-2.
PDXs from patients with lung cancer non responsive to anti-PD1 were exposed to no treatment, to mizoribine, or to either EDHB (left panel) or Viagra (right panel). […]
(In an ELISA, binding on a coated surface is turned into a signal by an enzyme label.)

For another data set, the system named is 4T1 cells. Description: In-vivo EDHB experiment, 4T1 tumors in mammary fat pad. On the set-up: species or system female BALB/c mice. The procedure:
In-vivo EDHB experiment: Eight-week-old female BALB/c mice were inoculated with 4T1 in the mammary fat pad (1 × 10^6 cells). ethyl 3,4 dihydroxybenzoate (EDHB) treatment was started after 4 days when the primary tumor nodule was established and palpable. EDHB (40 mg per kg) was intraperitoneally injected daily into cancer-bearing mice. EDHB was initially dissolved in 100% Ethanol and diluted to required concentration in saline. 95% Saline/5% Ethanol mix without drug was injected as a vehicle to control animals. Following injection, mice were treated with 250 ug of anti PD-1 antibody on days 7, 11, 13, 15. On day 19, mice were euthanized and tumors were removed and weighted.

Another data set deals with A549 cells. Nature of the data set: Nucleotide levels by LC-MS with or without methotrexate. Format: cell-based. The note with it: 1.2 µM Methotrexate. On the procedure: Methotrexate treatment: A549 cells were grown for 48 hr in control medium or supplemented with 1.2 µM Methotrexate (Holland-Moran). Nucleotide levels were measured as described below by LC-MS. Purine/pyrimidine ratio was calculated by dividing (AMP+GMP+ATP+ADP+GTP) concentration by (UMP+CMP+TMP+UTP+CTP+TTP) concentration.
LC-MS analysis: The LC-MS/MS instrument consisting of an Acquity I-class UPLC system (Waters) and Xevo TQ-S triple quadrupole mass spectrometer (Waters), equipped with an electrospray ion source, and operated in positive ion mode was used for analysis of nucleoside monophosphates. MassLynx and TargetLynx software (version 4.1, Waters) were applied for the acquisition and analysis of data. Chromatographic separation was done on a 100 mm × 2.1 mm internal diameter, 1.8-µm UPLC HSS T3 column equipped with 50 mm × 2.1 mm internal diameter, 1.8-µm UPLC HSS T3 pre-column (both Waters Acquity) with mobile phases A (10 mM ammonium acetate and 5 mM ammonium hydrocarbonate buffer, pH 7.65 adjusted with 10% acetic acid) and B (acetonitrile) at a flow rate of 0.3 mL min-1 and column temperature 25° C. A gradient was used as follows: for 0-3 min the column was held at 0.2% B, then 3-3.5 min a linear increase to 100% B, 3.5-4.0 min held at 100% B, 4.0-4.5 min back to 0.2% B and equilibration at 0.2% B for 2.5 min. Samples kept at 8° C. were automatically injected in a volume of 3 µl. For mass spectrometry, argon was used as the collision gas with a flow of 0.10 mL min-1. The capillary voltage was set to 2.50 kV, source temperature 150° C., desolvation temperature 400° C., cone gas flow 150 1 hr-1, desolvation gas flow 800 1 hr-1. Nucleotide concentration was calculated using a standard curve of the relevant nucleotide concentration in each sample. Standard curves included increasing concentration of all measured nucleotides ranging from 0-10 ug/ml that were positioned at the beginning and at the end of each run. All the calculated values for the different nucleotides in each sample fell within the standard curve range. Analytes were detected in positive mode using multiple-reaction monitoring listed in Lee, J. S. et al. 2018 (REF_9).
Nucleotide levels of 4T1 cells grown either with or without 1.2 µM Methotrexate (Holland-Moran) for 48 h, were measured and quantified by liquid chromatography-mass spectrometry (LC-MS) as µg/mg protein.

Source text for 4T1 breast cancer cells: LC-MS analysis: The LC-MS/MS instrument consisting of an Acquity I-class UPLC system (Waters) and Xevo TQ-S triple quadrupole mass spectrometer (Waters), equipped with an electrospray ion source, and operated in positive ion mode was used for analysis of nucleoside monophosphates. MassLynx and TargetLynx software (version 4.1, Waters) were applied for the acquisition and analysis of data. Chromatographic separation was done on a 100 mm × 2.1 mm internal diameter, 1.8-µm UPLC HSS T3 column equipped with 50 mm × 2.1 mm internal diameter, 1.8-µm UPLC HSS T3 pre-column (both Waters Acquity) with mobile phases A (10 mM ammonium acetate and 5 mM ammonium hydrocarbonate buffer, pH 7.65 adjusted with 10% acetic acid) and B (acetonitrile) at a flow rate of 0.3 mL min-1 and column temperature 25° C. […] Nucleotide concentration was calculated using a standard curve of the relevant nucleotide concentration in each sample. Standard curves included increasing concentration of all measured nucleotides ranging from 0-10 ug/ml that were positioned at the beginning and at the end of each run. All the calculated values for the different nucleotides in each sample fell within the standard curve range. […]

For the compound `CCOC(=O)c1ccc(O)c(O)c1` [EDHB, Ethyl 3,4 dihydroxybenzoate], the “cellular deoxypyrimidine to deoxypurine ratio (pyrimidine / purine ratio)” value in the data set with 4T1 breast cancer cells was “increase in pyrimidine / purine ratio”. Further, the “response to anti-PD1 therapy (IFN-g response) in PDX of non responsive patients” value in data set [1] (PDXs from lung cancer patients non responsive to anti-PD1, IFN-g measured following anti-PD1) is recorded as “increases response to anti-PD1 therapy”. Moreover, in the data set with 4T1 cells (40 mg/kg EDHB IP daily from day 4, 250 ug anti PD-1 IP days 7, 11, 13, 15), the “tumor weight, EDHB and anti PD-1 combination treatment” value was “reduces tumor weight”. For the same compound, the “total weight of the mice” value with 4T1 cells (40 mg/kg EDHB IP daily, with anti PD-1) was “did not cause any change”.
In the case of `CN(Cc1cnc2nc(N)nc(N)c2n1)c1ccc(C(=O)N[C@@H](CCC(=O)O)C(=O)O)cc1` [Methotrexate], in the data set on A549 cells (48 h, 4T1 cells), the “AMP level, Methotrexate Treatment” value is reported as 483.2 µg/mg pt; the “ATP level, Methotrexate Treatment” value is 75.1 µg/mg pt; the “CMP level, Methotrexate Treatment” value came to 7.3 µg/mg pt; the “CTP level, Methotrexate Treatment” value is 12.0 µg/mg pt. For the same compound, in the data set with A549 cells (48 h, 4T1 cells), the “GMP level, Methotrexate Treatment” value stood at 28.46 µg/mg pt; the “GTP level, Methotrexate Treatment” value is 16.7 µg/mg pt; the “TMP level, Methotrexate Treatment” value amounted to 0.0078 µg/mg pt; the “TTP level, Methotrexate Treatment” value was 0.004432 µg/mg pt. Besides, in the data set on A549 cells (48 h, 4T1 cells), the “UMP level, Methotrexate Treatment” value is listed as 38.39 µg/mg pt and the “UTP level, Methotrexate Treatment” value was found to be 36.9 µg/mg pt. In the data set on A549 cells (high ASS1 expressing lung cancer cells (A549), 48 hr), the “purine to pyrimidine ratio” value is listed as “decreased their purine to pyrimidine ratio”.
As for nivolumab: anti-PD1 antibody, the “IFNγ secretion by autologous CD8+ T cells, anti-PD1 plus mizoribine-treated explants” value in data set [1] is recorded as “significant elevation in IFNγ secretion”.
With pembrolizumab: anti-PD1 antibody, the “IFNγ secretion by autologous CD8+ T cells, anti-PD1 plus mizoribine-treated explants” value in data set [1] is listed as “significant elevation in IFNγ secretion”.
